The target of one data set is EGFR (Homo sapiens, UniProt P00533). Put plainly: In vitro EGFR kinase inhibitory activity (ELISA, EGFR Erb B1 kinase kit).
For the next data set, the system named is HepG2 (Hepatocellular). Put plainly: Antiproliferative activity, sulphorhodamine B (SRB) assay, HepG2. It is filed as cell-based. As to conditions: Homo sapiens, HepG2, cytotoxicity, HepG2 liver cancer cells, mean of three independent experiments. The method, then:
(§1) The cytotoxicity of the new isolated compounds was evaluated against MCF-7 (breast cells), HepG2 (Hepatocellular) and HCT-116 (colorectal cells) human cancer cells using sulphorhodamine B assay (SRB). This assay was performed as previously published.
(§2) The antiproliferative activity of the target compounds was assessed on three cancer lines, MCF-7, HepG2 and HCT-116 cells using sulforhodamine assay. […].

For data set [1], the system named is HCT-116 (colorectal cells). In words: Antiproliferative activity, sulphorhodamine B (SRB) assay, HCT-116. The class given is cell-based. As to conditions: Homo sapiens, HCT-116, cytotoxicity, HCT-116 colorectal cancer cells, mean of three independent experiments. The method, then:
as §1, §2
For orientation: The SRB assay estimates cell density from bound dye.

Another data set deals with MCF-7 (breast cells). Put plainly: Antiproliferative activity, sulphorhodamine B (SRB) assay, MCF-7. The class given is cell-based. As to conditions: Homo sapiens, MCF7, cytotoxicity, MCF-7 breast cancer cells, mean of three independent experiments. The method, then:
as §1, §2

Another data set relates to HepG2. In words: Apoptosis, acridine orange/ethidium bromide staining, HepG2. It is filed as cell-based, human. As to conditions: HepG2, AO/EtBr dual staining, 48 h, fluorescent microscope. The method, then:
(§3) AO and EtBr are DNA binding dyes. They have been used for detection of the morphological features of apoptotic and necrotic cells. The stainings were performed according the protocol as previously published.
(§4) The MCF-7, HepG2 and HCT 116 cancer cells were categorized by AO/EtBr dual staining. The different colors of the cells indicate different stages of apoptosis. […] and examined under a fluorescent microscope. Regularly stained green with normal, round, intact nuclei and cytoplasm indicates the viability of the normal cell (control).

Another data set relates to HCT 116. Put plainly: Apoptosis, acridine orange/ethidium bromide staining, HCT 116. It is filed as cell-based, human. As to conditions: HCT 116, AO/EtBr dual staining, 48 h, fluorescent microscope. The method, then:
as §3, §4

The next data set has as its system MCF-7. Put plainly: Apoptosis, acridine orange/ethidium bromide staining, MCF-7. It is filed as cell-based, human. As to conditions: MCF-7, AO/EtBr dual staining, 48 h, fluorescent microscope. The method, then: as §3, §4

≈ marks a conversion by molar mass, not a printed value. Where only a bound is given, the exact number is not on record here.

18 compounds from publication PMC8469912, “Naproxen Based 1,3,4-Oxadiazole Derivatives as EGFR Inhibitors: Design, Synthesis, Anticancer, and Computational Studies” (Pharmaceuticals, 2021) can be followed below.

Chain of EGFR (P00533 25-1210): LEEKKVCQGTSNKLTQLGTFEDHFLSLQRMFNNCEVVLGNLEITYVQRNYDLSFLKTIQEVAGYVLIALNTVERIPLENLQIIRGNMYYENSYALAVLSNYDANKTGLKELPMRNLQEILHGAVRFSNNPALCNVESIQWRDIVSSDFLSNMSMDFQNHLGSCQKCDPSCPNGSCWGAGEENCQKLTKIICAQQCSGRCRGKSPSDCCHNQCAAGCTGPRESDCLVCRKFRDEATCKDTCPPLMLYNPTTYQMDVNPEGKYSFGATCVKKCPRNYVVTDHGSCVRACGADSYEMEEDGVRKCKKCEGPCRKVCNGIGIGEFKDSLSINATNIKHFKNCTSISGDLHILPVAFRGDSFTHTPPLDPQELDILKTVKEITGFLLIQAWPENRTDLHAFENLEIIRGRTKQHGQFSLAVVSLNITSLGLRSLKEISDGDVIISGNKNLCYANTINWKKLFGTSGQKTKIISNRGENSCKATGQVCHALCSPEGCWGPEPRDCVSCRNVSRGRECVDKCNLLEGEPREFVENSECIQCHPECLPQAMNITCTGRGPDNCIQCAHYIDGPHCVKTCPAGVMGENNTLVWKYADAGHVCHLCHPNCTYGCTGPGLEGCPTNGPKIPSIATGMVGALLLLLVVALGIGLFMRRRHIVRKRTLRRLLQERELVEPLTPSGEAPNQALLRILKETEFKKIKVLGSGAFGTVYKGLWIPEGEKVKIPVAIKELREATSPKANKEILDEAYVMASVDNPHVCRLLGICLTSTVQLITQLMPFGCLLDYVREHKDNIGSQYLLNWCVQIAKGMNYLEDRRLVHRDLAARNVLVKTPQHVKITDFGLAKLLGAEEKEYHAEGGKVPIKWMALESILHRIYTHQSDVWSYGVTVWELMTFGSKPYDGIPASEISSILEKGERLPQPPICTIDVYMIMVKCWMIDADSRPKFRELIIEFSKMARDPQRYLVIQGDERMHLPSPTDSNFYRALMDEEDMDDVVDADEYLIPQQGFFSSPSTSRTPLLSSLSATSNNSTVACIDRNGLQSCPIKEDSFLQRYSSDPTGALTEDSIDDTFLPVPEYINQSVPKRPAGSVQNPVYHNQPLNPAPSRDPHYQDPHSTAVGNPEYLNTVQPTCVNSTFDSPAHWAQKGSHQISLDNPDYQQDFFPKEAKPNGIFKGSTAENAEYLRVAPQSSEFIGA
Procedure for EGFR: Briefly, solutions of kinase/peptide and ATP were prepared prior to use. […] Then, 5 mL of this prepared solution was added into 96 well plates, incubated for 1 h and determined by an ELISA Reader (Perkin Elmer, Waltham, MA, USA). Each experiment was repeated three times and IC50 represented as mean ± S.E, was calculated using Graph Pad Prism 5.

As a reminder, the IC50 is the concentration that inhibits the measured activity by half. Low readings indicate greater potency, high ones weaker potency. For orientation: melting point means the temperature of the solid-liquid transition. As for `COc1ccc2cc([C@H](C)c3nnc(SCc4cn(-c5ccc(F)cc5)nn4)o3)ccc2c1` [Compound 8], the melting point lay within 99 to 100 °C. This compound showed an IC50 against EGFR of 7310 ± 250 nM. Besides, the midpoint of inhibition in the data set on HepG2 (Hepatocellular), the IC50, lay at 25.5 µg/mL (≈ 55.2 µM). The IC50 in data set [1] amounted to 15.7 µg/mL (≈ 33.9 µM). This compound had an IC50 with MCF-7 (breast cells) of 7.38 µg/mL (≈ 16 µM).

For `COc1ccc2cc([C@H](C)c3nnc(SCc4cn(-c5ccc(F)cc5F)nn4)o3)ccc2c1` [Compound 9], the “Early apoptosis (cell death)” value in the data set on HepG2, in the data set with HCT 116 and with MCF-7 was “significant rate of cell death in early apoptosis” throughout. Moreover, the Necrosis result in the data set on HepG2, in the data set with HCT 116 and with MCF-7 was “does not cause death of the necrosis pathway” in each case. The IC50 at EGFR stood at 710 ± 170 nM; in the data set on HepG2 (Hepatocellular), 4.52 µg/mL (≈ 9.43 µM); in data set [1], 7.46 µg/mL (≈ 15.6 µM); in the data set with MCF-7 (breast cells), 6.47 µg/mL (≈ 13.5 µM).

Take `COc1ccc2cc([C@H](C)c3nnc(SCc4cn(-c5ccccc5Cl)nn4)o3)ccc2c1` [Compound 10]: the “Early apoptosis (cell death)” value with HepG2, in the data set with HCT 116 and in the data set on MCF-7 was “significant rate of cell death in early apoptosis” each time. In addition, the IC50 amounted to 670 ± 330 nM against EGFR, 3.53 µg/mL (≈ 7.39 µM) in the data set with HepG2 (Hepatocellular), 33.9 µg/mL (≈ 70.9 µM) in data set [1] and 5.05 µg/mL (≈ 10.6 µM) in the data set on MCF-7 (breast cells).

Regarding `COc1ccc2cc([C@H](C)c3nnc(SCc4cn(-c5cccc(Cl)c5)nn4)o3)ccc2c1` [Compound 11], the IC50 amounted to 37.9 µg/mL (≈ 79.3 µM) in the data set on HepG2 (Hepatocellular), 83.9 µg/mL (≈ 176 µM) in data set [1] and 60.5 µg/mL (≈ 126 µM) in the data set with MCF-7 (breast cells).

Consider `COc1ccc2cc([C@H](C)c3nnc(SCc4cn(-c5ccc(Cl)cc5Cl)nn4)o3)ccc2c1` [Compound 12], for which the melting point lay in the range of 102 to 103 °C. In the data set with HepG2 (Hepatocellular), this compound registered an IC50 of 26.4 µg/mL (≈ 51.5 µM). This compound also gave an IC50 in data set [1] of 28.1 µg/mL (≈ 54.9 µM). Besides, the midpoint of inhibition with MCF-7 (breast cells), the IC50, lay at 45.7 µg/mL (≈ 89.2 µM).

For `COc1ccc2cc([C@H](C)c3nnc(SCc4cn(-c5cccc(Br)c5)nn4)o3)ccc2c1` [Compound 13], the IC50 is 3420 ± 110 nM at EGFR, 7.07 µg/mL (≈ 13.5 µM) with HepG2 (Hepatocellular), 29.3 µg/mL (≈ 56 µM) in data set [1] and 15.8 µg/mL (≈ 30.3 µM) with MCF-7 (breast cells).

Consider `COc1ccc2cc([C@H](C)c3nnc(SCc4cn(-c5ccc(Br)cc5)nn4)o3)ccc2c1` [Compound 14], for which the melting point lay within 160 to 161 °C. Also, 5120 ± 210 nM corresponded to half-maximal inhibition against EGFR (IC50). In addition, half-maximal inhibition with HepG2 (Hepatocellular) (IC50) required 7.63 µg/mL (≈ 14.6 µM). In addition, 86.1 µg/mL (≈ 165 µM) corresponded to half-maximal inhibition in data set [1] (IC50). The compound further had an IC50 in the data set with MCF-7 (breast cells) of 7.5 µg/mL (≈ 14.4 µM).

Turning to `COc1ccc2cc([C@H](C)c3nnc(SCc4cn(-c5ccccc5O)nn4)o3)ccc2c1` [Compound 15, 2-(4-((5-((S)-1-(2-methoxynaphthalen-6-yl)ethyl)-1,3,4-oxadiazol-2-ylthio)methyl)-1H-1,2,3-triazol-1-yl)phenol], the “Early apoptosis (cell death)” value in the data set with HepG2 and in the data set on HCT 116 was “percentage of cell death decreased” throughout. Besides, the IC50 against EGFR came to 410 ± 120 nM; with HepG2 (Hepatocellular) it was 1.63 µg/mL (≈ 3.55 µM); in data set [1], 29.1 µg/mL (≈ 63.3 µM); with MCF-7 (breast cells) it was 2.13 µg/mL (≈ 4.64 µM). The Late apoptosis entry in the data set with HCT 116 is “induces more late apoptosis”. Besides, the Necrosis entry in the data set with HCT 116 was “high percentage of necrosis”.

Consider `COc1ccc2cc([C@H](C)c3nnc(SCc4cn(-c5cccc(C(=O)O)c5)nn4)o3)ccc2c1` [Compound 16], for which the Late apoptosis entry in the data set on HepG2 and in the data set with MCF-7 was “observed at a high rate” each time. The Necrosis result in the data set on HepG2 and with MCF-7 was “high percentage of necrosis” throughout. Further, the IC50 worked out at 2270 ± 170 nM against EGFR, 10.7 µg/mL (≈ 21.9 µM) with HepG2 (Hepatocellular), 8.36 µg/mL (≈ 17.1 µM) in data set [1] and 10.4 µg/mL (≈ 21.4 µM) in the data set on MCF-7 (breast cells).

`COc1ccc2cc([C@H](C)c3nnc(SCC(=O)Nc4ccc(F)cc4)o3)ccc2c1` [Compound 19] came in with a melting point of 220 to 221 °C.

Turning to `COc1ccc2cc([C@H](C)c3nnc(SCC(=O)Nc4ccc(F)cc4F)o3)ccc2c1` [Compound 20], the melting point was 102 to 103 °C. Also, the IC50 with HepG2 (Hepatocellular) came out at 31.3 µg/mL (≈ 68.8 µM). This compound also had an IC50 in data set [1] of 73.4 µg/mL (≈ 161 µM). Also, half-maximal inhibition in the data set with MCF-7 (breast cells) (IC50) was put at 32.6 µg/mL (≈ 71.7 µM).

Regarding `COc1ccc2cc([C@H](C)c3nnc(SCC(=O)Nc4cccc(Cl)c4)o3)ccc2c1` [Compound 21], the IC50 against EGFR stood at 820 ± 280 nM; in the data set with HepG2 (Hepatocellular) it was 7 µg/mL (≈ 15.4 µM); in data set [1], 1.24 µg/mL (≈ 2.73 µM); in the data set with MCF-7 (breast cells), 25.9 µg/mL (≈ 57.1 µM).

Turning to `COc1ccc2cc([C@H](C)c3nnc(SCC(=O)Nc4cccc(Br)c4)o3)ccc2c1` [Compound 22], the melting point is 129 to 130 °C. Also, in the data set on HepG2 (Hepatocellular), the IC50 is greater than 100 µg/mL. In addition, the IC50 in the data set on MCF-7 (breast cells) was greater than 100 µg/mL.

`COc1ccc2cc([C@H](C)c3nnc(SCC(=O)Nc4ccc(Br)cc4)o3)ccc2c1` [Compound 23] returned a melting point of 148 to 149 °C. This compound yielded an IC50 with HepG2 (Hepatocellular) of 15 µg/mL (≈ 30 µM). Also, the IC50 in data set [1] was determined as 35.1 µg/mL (≈ 70.5 µM). In addition, in the data set with MCF-7 (breast cells), the IC50 is 25.6 µg/mL (≈ 51.3 µM).

Regarding `COc1ccc2cc([C@H](C)c3nnc(SCC(=O)Nc4ccccc4C)o3)ccc2c1` [Compound 24], the IC50 was 1080 ± 310 nM at EGFR, 4.88 µg/mL (≈ 11.3 µM) with HepG2 (Hepatocellular), 29.3 µg/mL (≈ 67.7 µM) in data set [1] and 8.15 µg/mL (≈ 18.8 µM) with MCF-7 (breast cells).

On to `COc1ccc2cc([C@H](C)c3nnc(SCC(=O)Nc4ccccc4C(=O)O)o3)ccc2c1` [Compound 25], for which the melting point was in the range of 130 to 131 °C. The IC50 in the data set on HepG2 (Hepatocellular) stood at 28 µg/mL (≈ 60.5 µM). In data set [1], inhibition was half-maximal at 29.2 µg/mL (≈ 63 µM) (IC50). The compound further showed an IC50 with MCF-7 (breast cells) of 29.8 µg/mL (≈ 64.3 µM).

Regarding `COc1ccc2cc([C@H](C)c3nnc(SCC(=O)N4CCOCC4)o3)ccc2c1` [Compound 26], the figures for the IC50 (in the data set on HepG2 (Hepatocellular); in data set [1]; in the data set with MCF-7 (breast cells)) were 23.6 µg/mL (≈ 57.2 µM), 11.1 µg/mL (≈ 26.8 µM) and 22.3 µg/mL (≈ 53.9 µM), respectively.

As to `COc1cccc2c1C(=O)c1c(O)c3c(c(O)c1C2=O)C[C@@](O)(C(=O)CO)C[C@@H]3O[C@H]1C[C@H](N)[C@H](O)[C@H](C)O1` [Doxorubicin, reference compound], the IC50 in the data set with HepG2 (Hepatocellular) stood at 1.62 µg/mL (≈ 2.98 µM); in data set [1], 2.11 µg/mL (≈ 3.88 µM); in the data set on MCF-7 (breast cells) it was 1.41 µg/mL (≈ 2.59 µM).
